The structures appear in SMILES notation.

Usually melting point stands for the temperature, or range, at which the solid turns liquid.

On to `CC(C)(C)C(NC(=O)c1ccc(Cl)cc1)NC(=NC#N)Nc1cccnc1` (stereo not given), for which the melting point was in the range of 194 to 195 °C.

Compound `Cc1c(NC(=O)c2ccc(-c3ccccc3)cc2F)ccc2cc(CN3CCCCCC3)cnc12` registered a melting point of 151 to 153 °C.

`N#Cc1ccc(C#CCN2CCc3nc(N)sc3CC2)cc1` had a melting point of 174 to 176 °C.

`Clc1ccc(N2CCN(Cc3n[nH]c4c3CCc3ccccc3-4)CC2)nc1` registered a melting point of 207 to 208 °C.

As to `O=C1CCC(c2ccc(N=C3NCCN3)cc2)=NN1`, the melting point lay within 235 to 236 °C.

In turn, `Cn1cc(C(=O)NCc2ccc(Cl)cc2)c(=O)c2cc(CN3CCOCC3)sc21` gave a melting point of 230 to 236 °C.

For the compound `NCC1COc2cc(F)cc(-c3ccccc3Cl)c2N1` (stereo not given), the melting point turned out to be 86 °C.

In the case of `CCCc1c(OCCOc2cccc(C(=O)OCC)c2)ccc(C(C)=O)c1O`, the melting point was 58 to 60 °C.

With `O=C1CCN(Cc2cccc(C(F)(F)F)c2)CC1C(c1ccccc1)c1ccccc1` (stereo not given), the melting point lay in the range of 128 to 129 °C.

Take `CCc1cccc(CC(=O)O)c1OCCCc1cn(-c2ccc(C(F)(F)F)nn2)nc1C(CC)CC`: the melting point lay in the range of 93 to 94 °C.

The compound `COc1c2c(cc3ccc(=O)oc13)CC(OC)O2` (stereo not given) showed a melting point of 131 to 132 °C.

`CCOCc1nc2c(N)nc3ccccc3c2n1CC1(O)CCN(C(=O)OC(C)(C)C)CC1` showed a melting point of 195 to 197 °C.

The compound `Cc1ccccc1C(c1c[nH]cn1)c1ccccc1C` registered a melting point of 228 to 231 °C.

Regarding `C[Si](C)(C)NC(=O)CC(=O)N[Si](C)(C)C`, the melting point was in the range of 72 to 76 °C.

`CC(C)NCC(O)COc1ccc(CCSCC2CCC2)cc1` (stereo not given) gave a melting point of 52 °C.

For the compound `CCOC(=O)C1[C@@H]2[C@@H](O)[C@@H]3O[C@H](c4ccc(OC)cc4)OC[C@H]3O[C@H]12` (stereo not given in full), the melting point lay in the range of 118 to 120 °C.

Compound `N#Cc1cc(C(F)(F)F)[nH]c1-c1ccc(Br)o1` gave a melting point of 224 to 226 °C.

`Cc1cccc(C(=O)Nc2ccc(N3CCN(Cc4cccc(C#N)c4)CC3)cc2)c1-c1ccc(C(F)(F)F)cc1` displayed a melting point of 192 °C.

For `CCCCCCCCCN(C[C@H]1CCC[C@H](CN(CCCCCCCCC)C(=O)Nc2ccc(N(C)C)cc2)C1)C(=O)Nc1ccc(N(C)C)cc1` (relative stereo), the melting point fell in the range of 116 to 120 °C.

`COc1ccc(N(Cc2cccc3ccccc23)c2ccccc2)cc1` yielded a melting point of 154 to 159 °C.

`N#Cc1n[nH]c2ccccc12` returned a melting point of 138 to 140 °C.

Consider `O=c1[nH]c2ccc(-c3cc(=O)c4ccccc4o3)cc2o1`, for which the melting point was 348 °C.

In turn, `C=Cc1cc(C)cc(C)c1C1=C(O)C2(CCN(OC)CC2)N(OC2CCCO2)C1=O` (stereo not given) showed a melting point of 132 to 135 °C.

`OCCCc1cnoc1-c1ccc2c(c1)OCO2` displayed a melting point of 45 to 46 °C.

The compound `COc1cc(OC)c2c(=O)[nH]c(-c3ccc4[nH]c(CN(C)C)cc4c3)nc2c1` gave a melting point of 187 to 188 °C.

Consider `COc1c(S(N)(=O)=O)c(C)nn1C`, for which the melting point was 144 to 146 °C.

`CN(C)c1cc(C(F)(F)F)cc(Cl)c1-n1nc(C#N)c(S(=O)(=O)C(F)(F)F)c1N` had a melting point of 197 °C.

On to `Clc1nc2ccc(Br)cc2cc1Cc1ccccc1`, for which the melting point is 102 to 104 °C.

For the compound `O=[N+]([O-])c1cccnc1Sc1nc(Cl)no1`, the melting point was determined as 84 °C.

As for `Clc1ccc2c3c(cccc13)-c1ccccc1-2`, the melting point fell in the range of 95 to 98 °C.

`CN(C)CCOC(=O)c1ccc(CCN2CC=C(c3c[nH]c(-c4ccc(F)cc4)c3-c3ccncc3)CC2)cc1` showed a melting point of 178 to 181 °C.

Take `CCNC(=O)C(C)(Cc1cc2ccccc2s1)C(N)=O` (stereo not given): the melting point fell in the range of 141 to 143 °C.

In turn, `COC(=O)NC(CCc1ccccc1)C(=O)O` (stereo not given) registered a melting point of 108 to 110 °C.

`c1cnc(N2CCN(Cc3ccc4c(c3)Cc3c(-c5ccsc5)n[nH]c3-4)CC2)nc1`: the melting point lay within 245 to 247 °C.

For `CCOC(=O)c1cc2c(nc(C)n2C)c2c1CCC(OC)(c1ccccc1C)O2` (stereo not given), the melting point was found to be 198 °C.

`O=C(O)c1ccc2c(c1)Sc1ccc(Cl)cc1C2`: the melting point is 294 to 295 °C.

`CC(CC(=O)NC(C)(C)C#CCl)Oc1cncc(Cl)c1` (stereo not given) displayed a melting point of 78 to 82 °C.

As to `N#Cc1ccc(/C=C/C=C/C=O)c(F)c1`, the melting point lay within 174 to 177 °C.

`O=C(O)CN1C(=O)C2(COc3cc4c(cc32)OCCO4)c2ccccc21` (stereo not given) registered a melting point of 193 to 196 °C.

Compound `Clc1nc(-n2cnc(-c3ccccc3)c2-c2ccccc2)c2ccccc2c1-c1ccccc1` came in with a melting point of 195 to 196 °C.

Consider `Cc1c(S(=O)(=O)N(C)C)c(=O)c2ccc(F)cc2n1C`, for which the melting point was in the range of 244 to 248 °C.

With `NC(=S)Nc1cc[nH]n1`, the melting point was in the range of 130 to 132 °C.

The compound `C[C@H](Nc1ncnc2[nH]cnc12)c1oc2ccc(F)cc2c(=O)c1-c1ccccc1` showed a melting point of 196 to 198 °C.

`COc1cc(N)c(Cl)cc1C(=O)NCCN(C)C1CC1` showed a melting point of 164 to 165 °C.

Regarding `C#CC(C)(C)N1CCN(C(=O)OC(C)(C)C)CC1`, the melting point was in the range of 106 to 107 °C.

`O=C1C=CN2c3ccccc3CCC2C1` (stereo not given) gave a melting point of 135 to 137 °C.

For the compound `O=C(CN1CCCCC1)Nc1ccc([N+](=O)[O-])cc1`, the melting point fell in the range of 144 to 145 °C.

Turning to `NC(=O)CC[C@H](Nc1ccc(CC(=O)O)cc1)C(=O)O`, the melting point lay in the range of 198 to 200 °C.

Compound `CC(C)c1cc(CC2SCNC2=O)cc(C(C)C)c1O` (stereo not given) showed a melting point of 136 to 139 °C.

For the compound `CSC1NC(=O)N(Cc2ccccc2)C(=O)N1N=C(C)C` (stereo not given), the melting point was 148 to 150 °C.

Consider `CCc1c(Oc2ncc(C(F)(F)F)cc2Cl)n[nH]c1C`, for which the melting point was 74 to 75 °C.

The compound `CC(Cl)(Cl)C(=O)N1CCCC1C(=O)O` (stereo not given) registered a melting point of 61 to 62 °C.

The compound `CC(=O)Nc1ccc(Nc2c(NCc3ccccc3)cc(C(=O)O)cc2S(=O)(=O)Nc2ccccc2NC(C)=O)cc1` displayed a melting point of 268 °C.

As for `Cc1cnc(CCl)n2c1c(CCCl)c1ccccc12`, the melting point lay in the range of 160 to 161 °C.

Compound `O=C(O)CC1CCC2(CC1)OOC1(O2)C2CC3CC(C2)CC1C3` (stereo not given) came in with a melting point of 146 to 148 °C.

As to `COC(=O)c1nnn(Cc2ccccc2F)c1C(=O)OC`, the melting point fell in the range of 203 to 205 °C.

With `COc1cc(I)c(Oc2cnc(N)nc2N)cc1I`, the melting point was in the range of 136 to 138 °C.

`CCCCCCc1ccc(-n2c(-c3ccc(CC(=O)O)cc3)ccc2-c2ccc(CC(=O)O)cc2)cc1` came in with a melting point of 129 to 130 °C.

Regarding `O=C1CC(c2ccccc2)c2cc(O)ccc2O1` (stereo not given), the melting point is 138 °C.

The compound `Nc1nc2ccccc2c2c1nc(CF)n2CC1(O)CCOC1` (stereo not given) came in with a melting point of 169 to 171 °C.

`COC(=O)c1cc2c(Nc3ncccn3)cccc2s1` returned a melting point of 206 to 208 °C.

Compound `S=C1CN=C(c2ccccn2)c2cc(I)ccc2N1` registered a melting point of 242 °C.

`FC(F)(F)c1cccnc1N1CCN(c2nc3ccc(Cl)cc3[nH]2)CC1` yielded a melting point of 228 to 231 °C.

`O=C1CC2(CCO1)c1ccccc1Oc1ccccc12` yielded a melting point of 156 to 159 °C.

`COC(=O)c1cc(Cl)cc2c1OC(C)C(=O)N2` (stereo not given) yielded a melting point of 186 to 189 °C.

Compound `CCCc1nc2c(N)nc3ccccc3c2n1CCC(=O)OCC` displayed a melting point of 156 to 157 °C.

Consider `CC(C)(NCCCn1cnc(CO)c1)c1ccc(-c2ccccc2)cc1`, for which the melting point fell in the range of 128 to 130 °C.

As for `C=CC1(F)CN(C2CCCC2)c2nc(Nc3ccc(C(=O)NC4CCCNC4)cc3OC)ncc2N(C)C1=O` (stereo not given), the melting point lay in the range of 169 to 172 °C.

With `CCn1c(=O)n(Cc2ccccc2)c(=O)c2cc(C(=O)OCc3ccccc3)sc21`, the melting point lay within 147 to 148 °C.

`CC(CF)(CF)C(=O)C=Cc1ccccc1`: the melting point worked out at 45 °C.

For the compound `O=[N+]([O-])c1ccc(CN2CCC(O)CC2)cc1`, the melting point lay within 114 to 115 °C.

The compound `c1cncc(Nn2ccc3ccccc32)c1` came in with a melting point of 127 to 128 °C.

For the compound `COc1ccc(N2CCN(c3c(C)c(C)c4c(c3C)C(c3ccc(Cl)cc3)C(C)(C)O4)CC2)cc1` (stereo not given), the melting point was 181 to 183 °C.

In turn, `O=[N+]([O-])c1cc(CCl)ccc1Oc1ccc(OCc2ccccc2)cc1` gave a melting point of 106 to 107 °C.

`Cc1ccnc(-c2ccc([N+](=O)[O-])cc2)c1` displayed a melting point of 145 to 147 °C.

In turn, `CC(C)(O)c1ccc2c(c1)SC(c1ccccc1)C(c1ccc3c(c1)NC(=O)CO3)=C2` (stereo not given) showed a melting point of 241 to 245 °C.

As for `COC(=O)CSc1nc(Nc2ccc(N3CCOCC3)cc2)ncc1[N+](=O)[O-]`, the melting point is 188 to 190 °C.

The compound `COc1cc2c(cc1O)C(=O)C1c3c(cc(OC(C)C)c(OC)c3-2)CCN1C` (stereo not given) came in with a melting point of 240 to 242 °C.

Compound `CCCCCCC1c2cc(CBr)ccc2-c2ccc(CBr)cc21` yielded a melting point of 143 to 145 °C.

Compound `O=C1[C@H]2CCC[C@H]2N(C(=O)CCCCBr)c2ccccc2N1Cc1ccccc1` (relative stereo) had a melting point of 134 to 135 °C.

As to `CCC1(c2ccncc2)CCC(=O)NC1=O` (stereo not given), the melting point lay within 134 to 136 °C.

In turn, `Cc1ccc(S(=O)(=O)Oc2ccc(S(=O)(=O)C3=C(C(C)C)OCC3)cc2)cc1` yielded a melting point of 103 °C.

The compound `O=[N+]([O-])c1ccc(-n2ccnc2)cc1` displayed a melting point of 150 °C.

Compound `CCOC(=O)C1=C(C)NC(COC(=O)CCN(C)Cc2ccccc2)=C(C(=O)OCC)C1c1ccccc1Cl` (stereo not given) showed a melting point of 86 to 87 °C.

Compound `CCCNC(=Nc1ccccc1N1CCOCC1)NCCC` returned a melting point of 212 to 214 °C.

On to `O=C1OC(=O)c2cc3cccnc3c3cc([N+](=O)[O-])cc1c23`, for which the melting point lay in the range of 268 to 269 °C.

In the case of `COC1(c2cccc(OCc3ccc(-n4ccnc4)cc3)c2)CCOCC1`, the melting point was in the range of 129 to 130 °C.

In turn, `CC1(C)Oc2ccc(-c3c(O)c(=O)c3=O)cc2[C@@H](N2Cc3ccccc3C2=O)[C@@H]1O` (relative stereo) came in with a melting point greater than 250 °C.

On to `O=C1N=C(c2ccc(C(=O)Cl)cc2)C(c2ccc(C(=O)Cl)cc2)O1` (stereo not given), for which the melting point was greater than 300 °C.

Compound `CNc1nnc(C(C)(C)C)c(=O)n1NC` gave a melting point of 170 to 171 °C.

Values taken from a melting point compilation (Tetko et al.; mined from patent text by program, amines drawn as free bases though some values may be those of a salt).
